Assay results as given in ChEMBL document CHEMBL3124830, “Hepatitis C virus translation inhibitors targeting the internal ribosomal entry site” (J Med Chem, 2014).

How the values were obtained:
Hepatitis C virus [1] = experiment: Antiviral activity against Hepatitis C virus infected in Huh-7 cells assessed as inhibition of HCV replicon at 10 uM by replicon assay; type: functional, Hepacivirus hominis
[2] = Binding affinity to Hepatitis C virus genotype 1b IRES RNA subdomain 2a assessed as conformational change by cyanine dye-based FRET assay; design: species or system Hepatitis C virus subtype 1b
[3] = tested on: Internal ribosome entry site (IRES); experiment: Inhibition of Hepatitis C virus IRES RNA-driven translation; settings: Hepacivirus hominis
Hepatitis C virus [4] = experiment: Antiviral activity against Hepatitis C virus infected in Huh-7 cells assessed as inhibition of HCV replicon by replicon assay; type: functional, organism-based, Hepacivirus hominis
[5] = tested on: Internal ribosome entry site (IRES); experiment: Binding affinity to Hepatitis C virus IRES RNA subdomain 2a by mass spectrometry assay; design: species or system Hepacivirus hominis

Row | Compound | inhibition at 10 µM (Hepatitis C virus [1]) [%] | EC50 [2] [µM] | IC50 [3] [µM] | EC50 (Hepatitis C virus [4]) [µM] | Kd [5] [µM]
1 | CC(=O)c1ccc(C(=O)N[C@@H](CCCCN)C(=O)N2C[C@H](N)C[C@H](N)C2)cc1 | 75 | 6.3 |  |  | 
2 | Cc1cc2nc3ccc(N(C)C)cc3nc2cc1N |  |  | 0.08 |  | 
3 | CN(C)CC1COc2ccc3nc4n(c3c2C1)CC(CN(C)C)CN4 (stereo unspecified) |  | 0.6 |  | 4 | 
4 | CN(C)CCCn1c(N)nc2ccccc21 |  | 50 |  |  | 100
5 | Cc1cc(C)nc(/N=C(\N)NCCc2ccccc2)n1 |  |  | 9.6 |  | 
6 | CN(C)CCCn1c(N)nc2ccc3c(c21)CC(CN(C)C)CO3 (stereo unspecified) |  | 3.4 |  | 2.8 | 0.86
